Measurements as given in ChEMBL document CHEMBL5528067, “From Synergy to Monotherapy: Discovery of Novel 2,4,6-Trisubstituted Triazine Hydrazone Derivatives with Potent Antifungal Potency In Vitro and In Vivo” (J Med Chem, 2024).

Assays:
Type in all cases: functional
Candida albicans [1] = experiment: Antifungal activity against FCZ-resistant Candida albicans strain 901 assessed as growth inhibition measured after 48 hrs incubation by CLSI based micro-dilution broth method
Candida albicans [2] = experiment: Antifungal activity against FCZ-resistant Candida albicans strain 901 assessed as growth inhibition in presence of fluconazole measured after 48 hrs incubation by CLSI based micro-dilution broth method
Candida albicans [3] = experiment: Synergistic antifungal activity against FCZ-resistant Candida albicans strain 901 assessed as fractional inhibitory concentration index measured after 48 hrs in presence of FCZ by CLSI based micro-dilution broth method
Candida albicans [4] = experiment: Antifungal activity against FCZ-resistant Candida albicans strain 904 assessed as growth inhibition in presence of fluconazole measured after 48 hrs incubation by CLSI based micro-dilution broth method
Candida albicans [5] = experiment: Antifungal activity against FCZ-resistant Candida albicans strain 904 assessed as growth inhibition measured after 48 hrs incubation by CLSI based micro-dilution broth method
Candida albicans [6] = experiment: Synergistic antifungal activity against FCZ-resistant Candida albicans strain 904 assessed as fractional inhibitory concentration index measured after 48 hrs in presence of FCZ by CLSI based micro-dilution broth method

| SMILES | MIC80 (Candida albicans [1]) | MIC80 (Candida albicans [2]) | fractional inhibitory concentration index (FICI) (Candida albicans [3]) | MIC80 (Candida albicans [4]) | MIC80 (Candida albicans [5]) | fractional inhibitory concentration index (FICI) (Candida albicans [6]) |
| --- | --- | --- | --- | --- | --- | --- |
| Cc1ccccc1/C=N/Nc1nc(NCc2ccc(F)cc2)nc(NCc2ccc(F)cc2)n1 | > 64 µg/mL | > 64 µg/mL | 1.13 | > 64 µg/mL | > 64 µg/mL | 1.13 |
| O=[N+]([O-])c1cc(O)cc(/C=N/Nc2nc(NCc3ccc(F)cc3)nc(NCc3ccc(F)cc3)n2)c1 | > 64 µg/mL | 8 µg/mL | 0.25 | 4 µg/mL | > 64 µg/mL | 0.19 |
| Oc1ccc(/C=N/Nc2nc(NCc3ccc(F)cc3)nc(NCc3ccc(F)cc3)n2)cc1 | > 64 µg/mL | 16 µg/mL | 0.38 | 16 µg/mL | > 64 µg/mL | 0.38 |
| Fc1ccc(CNc2nc(NCc3ccc(F)cc3)nc(N/N=C/c3ccccc3)n2)cc1 | > 64 µg/mL | > 64 µg/mL | 1.13 | > 64 µg/mL | > 64 µg/mL | 1.13 |
| Fc1ccc(CNc2nc(NCc3ccc(F)cc3)nc(N/N=C/c3ccccc3F)n2)cc1 | > 64 µg/mL | > 64 µg/mL | 1.13 | > 64 µg/mL | > 64 µg/mL | 1.13 |
| O=[N+]([O-])c1c(O)cccc1/C=N/Nc1nc(NCc2ccc(F)cc2)nc(NCc2ccc(F)cc2)n1 | > 64 µg/mL | > 64 µg/mL | 1.13 | > 64 µg/mL | > 64 µg/mL | 1.13 |
| O=[N+]([O-])c1cccc(/C=N/Nc2nc(NCc3ccc(F)cc3)nc(NCc3ccc(F)cc3)n2)c1 | > 64 µg/mL | > 64 µg/mL | 1.13 | > 64 µg/mL | > 64 µg/mL | 1.13 |
| Cc1ccc(/C=N/Nc2nc(NCc3ccc(F)cc3)nc(NCc3ccc(F)cc3)n2)cc1 | > 64 µg/mL | > 64 µg/mL | 1.13 | > 64 µg/mL | > 64 µg/mL | 1.13 |
| O=[N+]([O-])c1ccccc1/C=N/Nc1nc(NCc2ccc(F)cc2)nc(NCc2ccc(F)cc2)n1 | > 64 µg/mL | > 64 µg/mL | 1.13 | > 64 µg/mL | > 64 µg/mL | 1.13 |
| Fc1ccc(CNc2nc(NCc3ccc(F)cc3)nc(N/N=C/c3cccc(Cl)c3)n2)cc1 | > 64 µg/mL | > 64 µg/mL | 1.13 | > 64 µg/mL | > 64 µg/mL | 1.13 |
| O=[N+]([O-])c1ccc(/C=N/Nc2nc(NCc3ccc(F)cc3)nc(NCc3ccc(F)cc3)n2)cc1O | > 64 µg/mL | 4 µg/mL | 0.19 | 4 µg/mL | > 64 µg/mL | 0.19 |
| Fc1ccc(CNc2nc(NCc3ccc(F)cc3)nc(N/N=C/c3ccc(Br)cc3)n2)cc1 | > 64 µg/mL | > 64 µg/mL | 1.13 | > 64 µg/mL | > 64 µg/mL | 1.13 |
| O=[N+]([O-])c1cc(/C=N/Nc2nc(NCc3ccc(F)cc3)nc(NCc3ccc(F)cc3)n2)ccc1O | > 64 µg/mL | 8 µg/mL | 0.25 | 4 µg/mL | > 64 µg/mL | 0.19 |
| N#Cc1ccc(/C=N/Nc2nc(NCc3ccc(F)cc3)nc(NCc3ccc(F)cc3)n2)cc1 | > 64 µg/mL | > 64 µg/mL | 1.13 | > 64 µg/mL | > 64 µg/mL | 1.13 |
| Fc1ccc(CNc2nc(NCc3ccc(F)cc3)nc(N/N=C/c3ccccc3Cl)n2)cc1 | > 64 µg/mL | > 64 µg/mL | 1.13 | > 64 µg/mL | > 64 µg/mL | 1.13 |
| Fc1ccc(CNc2nc(NCc3ccc(F)cc3)nc(N/N=C/c3ccc(Cl)cc3)n2)cc1 | > 64 µg/mL | > 64 µg/mL | 1.13 | > 64 µg/mL | > 64 µg/mL | 1.13 |
| O=[N+]([O-])c1ccc(O)cc1/C=N/Nc1nc(NCc2ccc(F)cc2)nc(NCc2ccc(F)cc2)n1 | > 64 µg/mL | 8 µg/mL | 0.25 | 8 µg/mL | > 64 µg/mL | 0.25 |
| Fc1ccc(/C=N/Nc2nc(NCc3ccc(F)cc3)nc(NCc3ccc(F)cc3)n2)cc1 | > 64 µg/mL | > 64 µg/mL | 1.13 | > 64 µg/mL | > 64 µg/mL | 1.13 |
| O=[N+]([O-])c1ccc(/C=N/Nc2nc(NCc3ccc(F)cc3)nc(NCc3ccc(F)cc3)n2)cc1 | > 64 µg/mL | > 64 µg/mL | 1.13 | > 64 µg/mL | > 64 µg/mL | 1.13 |
| Fc1ccc(CNc2nc(NCc3ccc(F)cc3)nc(N/N=C/c3ccc(C(F)(F)F)cc3)n2)cc1 | > 64 µg/mL | > 64 µg/mL | 1.13 | > 64 µg/mL | > 64 µg/mL | 1.13 |
| Fc1ccc(CNc2nc(NCc3ccc(F)cc3)nc(N/N=C/c3cccc(F)c3)n2)cc1 | > 64 µg/mL | > 64 µg/mL | 1.13 | > 64 µg/mL | > 64 µg/mL | 1.13 |
| O=[N+]([O-])c1cc(O)ccc1/C=N/Nc1nc(NCc2ccc(F)cc2)nc(NCc2ccc(F)cc2)n1 | > 64 µg/mL | 2 µg/mL | 0.16 | 2 µg/mL | > 64 µg/mL | 0.16 |
| Cc1cccc(/C=N/Nc2nc(NCc3ccc(F)cc3)nc(NCc3ccc(F)cc3)n2)c1 | > 64 µg/mL | > 64 µg/mL | 1.13 | > 64 µg/mL | > 64 µg/mL | 1.13 |
| Fc1ccc(CNc2nc(NCc3ccc(F)cc3)nc(N/N=C/c3ccc(I)cc3)n2)cc1 | > 64 µg/mL | > 64 µg/mL | 1.13 | > 64 µg/mL | > 64 µg/mL | 1.13 |
| Fc1ccc(CNc2nc(NCc3ccc(F)cc3)nc(N/N=C/c3ccc(OC(F)(F)F)cc3)n2)cc1 | > 64 µg/mL | > 64 µg/mL | 1.13 | > 64 µg/mL | > 64 µg/mL | 1.13 |
| COc1ccc(/C=N/Nc2nc(NCc3ccc(F)cc3)nc(NCc3ccc(F)cc3)n2)cc1 | > 64 µg/mL | > 64 µg/mL | 1.13 | > 64 µg/mL | > 64 µg/mL | 1.13 |
